Reference: PubChem BioAssay AID1963833 (Molecular Pharmacology Branch, DTP, NCI, 2024)

Tested on: 883617-216-R-J1-PDC complex spheroid viability
Test: Anticancer human tumor 883617-216-R-J1-PDC patient-derived bladder carcinoma cell line growth inhibition [POLQ]
Conditions: for IC50: curve of first compound; for viability, T/C: stronger effect = lower value; active = viability on the fitted dose curve at most 10% of control; inactive = the rest
Method in brief: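 Patient-derived tumour cells were co-cultured with HUVEC and mesenchymal stem cells as multicellular spheroids at 37 °C. They were treated with POLQ inhibitors (novobiocin, ART-558, RP6685) alone or combined with other agents. Top concentrations were at or near clinical Cmax (otherwise 10 microM; SN-38 at 1 microM), decreasing in half-log steps.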

[1] = second compound 0.0316 µM, first compound 0.00316 µM
[2] = second compound 0.0316 µM, first compound 0.01 µM
[3] = second compound 0.0316 µM, first compound 0.0316 µM
[4] = second compound 0.0316 µM, first compound 0.1 µM
[5] = second compound 0.0316 µM, first compound 0.316 µM
[6] = second compound 0.0316 µM, first compound 1 µM
[7] = second compound 0.1 µM, first compound 0.00316 µM
[8] = second compound 0.1 µM, first compound 0.01 µM
[9] = second compound 0.1 µM, first compound 0.0316 µM
[10] = second compound 0.1 µM, first compound 0.1 µM
[11] = second compound 0.1 µM, first compound 0.316 µM
[12] = second compound 0.1 µM, first compound 1 µM
[13] = second compound 0.316 µM, first compound 0.00316 µM
[14] = second compound 0.316 µM, first compound 0.01 µM
[15] = second compound 0.316 µM, first compound 0.0316 µM
[16] = second compound 0.316 µM, first compound 0.1 µM
[17] = second compound 0.316 µM, first compound 0.316 µM
[18] = second compound 0.316 µM, first compound 1 µM
[19] = second compound 1 µM, first compound 0.00316 µM
[20] = second compound 1 µM, first compound 0.01 µM
[21] = second compound 1 µM, first compound 0.0316 µM
[22] = second compound 1 µM, first compound 0.1 µM
[23] = second compound 1 µM, first compound 0.316 µM
[24] = second compound 1 µM, first compound 1 µM
[25] = second compound 3.16 µM, first compound 0.00316 µM
[26] = second compound 3.16 µM, first compound 0.01 µM
[27] = second compound 3.16 µM, first compound 0.0316 µM
[28] = second compound 3.16 µM, first compound 0.1 µM
[29] = second compound 3.16 µM, first compound 0.316 µM
[30] = second compound 3.16 µM, first compound 1 µM
[31] = second compound 10 µM, first compound 0.00316 µM
[32] = second compound 10 µM, first compound 0.01 µM
[33] = second compound 10 µM, first compound 0.0316 µM
[34] = second compound 10 µM, first compound 0.1 µM
[35] = second compound 10 µM, first compound 0.316 µM
[36] = second compound 10 µM, first compound 1 µM
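Note: spheroids exposed to compounds for seven days before readout.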
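Throughout, for viability, T/C: 100% = DMSO vehicle control viability.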

C=CCn1c(=O)c2cnc(Nc3ccc(N4CCN(C)CC4)cc3)nc2n1-c1cccc(C(C)(C)O)n1 + Nc1ccc(C#CCN(C(=O)Cc2ncc(C(F)(F)F)cc2C(F)(F)F)c2ccc(F)cc2)nn1
inactive: viability, T/C [1] 102% | viability, T/C [2] 98.9% | viability, T/C [3] 84.3% | viability, T/C [4] 113% | viability, T/C [5] 96.4% | viability, T/C [6] 59.8% | viability, T/C [7] 100% | viability, T/C [8] 95.6% | viability, T/C [9] 95.8% | viability, T/C [10] 94.1% | viability, T/C [11] 88.3% | viability, T/C [12] 86.8% | viability, T/C [13] 102% | viability, T/C [14] 115% | viability, T/C [15] 106% | viability, T/C [16] 108% | viability, T/C [17] 92.4% | viability, T/C [18] 63.6% | viability, T/C [19] 101% | viability, T/C [20] 96.5% | viability, T/C [21] 81.1% | viability, T/C [22] 101% | viability, T/C [23] 103% | viability, T/C [24] 49% | viability, T/C [25] 115% | viability, T/C [26] 109% | viability, T/C [27] 85.7% | viability, T/C [28] 99.3% | viability, T/C [29] 115% | viability, T/C [30] 58.4% | viability, T/C [31] 126% | viability, T/C [32] 101% | viability, T/C [33] 108% | viability, T/C [34] 116% | viability, T/C [35] 128% | viability, T/C [36] 45.1%
0.978 µM: IC50 (second compound 1 µM)
> 1 µM: IC50 (second compound 0.0316 µM) | IC50 (second compound 0.1 µM) | IC50 (second compound 0.316 µM) | IC50 (second compound 3.16 µM)
0.924 µM: IC50 (second compound 10 µM)

CCCS(=O)(=O)Nc1ccc(F)c(C(=O)c2c[nH]c3ncc(-c4ccc(Cl)cc4)cc23)c1F + Nc1ccc(C#CCN(C(=O)Cc2ncc(C(F)(F)F)cc2C(F)(F)F)c2ccc(F)cc2)nn1
> 10 µM: IC50 (second compound 0.316 µM) | IC50 (second compound 1 µM) | IC50 (second compound 3.16 µM) | IC50 (second compound 10 µM)
8.35 µM: IC50 (second compound 0.1 µM)
inactive: viability, T/C [3] 91.8% | viability, T/C [4] 104% | viability, T/C [5] 91.6% | viability, T/C [6] 102% | viability, T/C (second compound 0.0316 µM, first compound 3.16 µM) 106% | viability, T/C (second compound 0.0316 µM, first compound 10 µM) 47.2% | viability, T/C [9] 98.2% | viability, T/C [10] 86% | viability, T/C [11] 109% | viability, T/C [12] 112% | viability, T/C (second compound 0.1 µM, first compound 3.16 µM) 85% | viability, T/C (second compound 0.1 µM, first compound 10 µM) 43.5% | viability, T/C [15] 104% | viability, T/C [16] 92.8% | viability, T/C [17] 103% | viability, T/C [18] 111% | viability, T/C (second compound 0.316 µM, first compound 3.16 µM) 91.7% | viability, T/C (second compound 0.316 µM, first compound 10 µM) 54.5% | viability, T/C [21] 111% | viability, T/C [22] 103% | viability, T/C [23] 89.2% | viability, T/C [24] 92.4% | viability, T/C (second compound 1 µM, first compound 3.16 µM) 88.7% | viability, T/C (second compound 1 µM, first compound 10 µM) 50.7% | viability, T/C [27] 111% | viability, T/C [28] 102% | viability, T/C [29] 110% | viability, T/C [30] 98.3% | viability, T/C (second compound 3.16 µM, first compound 3.16 µM) 99.6% | viability, T/C (second compound 3.16 µM, first compound 10 µM) 59.7% | viability, T/C [33] 106% | viability, T/C [34] 107% | viability, T/C [35] 118% | viability, T/C [36] 125% | viability, T/C (second compound 10 µM, first compound 3.16 µM) 95.2% | viability, T/C (second compound 10 µM, first compound 10 µM) 57.6%
9.41 µM: IC50 (second compound 0.0316 µM)

CCc1c2c(nc3ccc(O)cc13)-c1cc3c(c(=O)n1C2)COC(=O)[C@]3(O)CC + Nc1ccc(C#CCN(C(=O)Cc2ncc(C(F)(F)F)cc2C(F)(F)F)c2ccc(F)cc2)nn1
0.169 µM: IC50 (second compound 0.1 µM)
0.177 µM: IC50 (second compound 0.316 µM)
0.278 µM: IC50 (second compound 10 µM)
inactive: viability, T/C [1] 77.5% | viability, T/C [2] 71% | viability, T/C [3] 59.1% | viability, T/C [4] 51.3% | viability, T/C [5] 40% | viability, T/C [6] 27.1% | viability, T/C [7] 92.6% | viability, T/C [8] 68.3% | viability, T/C [9] 70.8% | viability, T/C [10] 62.3% | viability, T/C [11] 39.5% | viability, T/C [12] 27.9% | viability, T/C [13] 77.5% | viability, T/C [14] 76% | viability, T/C [15] 72.6% | viability, T/C [16] 51% | viability, T/C [17] 46.6% | viability, T/C [18] 26.8% | viability, T/C [19] 86.4% | viability, T/C [20] 82.6% | viability, T/C [21] 59.3% | viability, T/C [22] 50.1% | viability, T/C [23] 40.1% | viability, T/C [24] 31.4% | viability, T/C [25] 94.8% | viability, T/C [26] 84.2% | viability, T/C [27] 71.1% | viability, T/C [28] 52.3% | viability, T/C [29] 45.9% | viability, T/C [30] 27.4% | viability, T/C [31] 93.6% | viability, T/C [32] 89.1% | viability, T/C [33] 78.9% | viability, T/C [34] 59.8% | viability, T/C [35] 51.4% | viability, T/C [36] 34.1%
0.168 µM: IC50 (second compound 3.16 µM)
0.107 µM: IC50 (second compound 0.0316 µM)
0.0908 µM: IC50 (second compound 1 µM)
